Assay results reported in patent US20060058312A1, “Stabilized aqueous preparation for injection” (priority 2004, published 2006).

What was measured:
Assay type in all cases: physicochemical
[1] = Stability test at 60° C., effect of pH value with addition of ascorbic acid (Example 2), HPLC content
Method: (§1) For the aqueous preparations obtained in (1) to (3) above, tests evaluating stability at 60° C./3 weeks were performed. The calcium levofolinate content remaining in the aqueous solution was measured using high performance liquid chromatography under the following conditions (the same were employed in the following experiments) 2 ml each of the test preparations were weighed, and 10 ml of the internal standard solution described below (the same was employed in the following experiments) were added thereto. Subsequently, water was added to adjust the total volume of the solution to 50 ml, thereby to prepare a test solution. Meanwhile, 62.5 mg of calcium levofolinate were dissolved in water so as to prepare a 25 ml solution. Then, to 10 ml of the resultant solution were added 10 ml of the internal standard solution, and the total volume of the solution was adjusted to 50 ml by adding water, thereby to prepare a standard solution. For 20 μl of the standard solution and the test solution, the content of calcium levofolinate was measured by the liquid chromatography method under the following conditions.
(§2) 1) Measurement Conditions • Detector: Ultraviolet absorptiometer (Measurement wavelength: 254 nm) • Column: A stainless tube having an internal diameter of 4.0 mm and a length of 15 cm was filled with 5 μm of octadecylsilylated silica gel for liquid chromatography. • Column temperature: A constant temperature near 45° C. • Mobile phase: The pH value of a mixed test solution containing 0.008 mol/L of disodium hydrogen phosphate solution/methanol/40% aqueous tetrabutylammonium hydroxide solution (385:110:1.3 (volume ratio)) was adjusted to 7.5 by adding phosphoric acid. • Flow rate: The flow rate was regulated so that the retention time of calcium levofolinate became about 10 minutes. • Internal standard solution: A solution prepared by adding water to 0.04 g of methyl parahydroxybenzoate so that the whole amount of solution is 100 ml.
About 80 ml of water for injection were added to a beaker (volume: 200 ml). Then 0.56 g of sodium chloride, 0.3 g of tromethamine, and 0.5 g of ascorbic acid were added to it with bubbling of nitrogen gas, and the components were dissolved with stirring. Subsequently, to the resultant solution were added 1.375 g of calcium levofolinate (1.1 g, in terms of 5-formyl-(6S)-tetrahydrofolic acid), and the components were dissolved with stirring under heating to 45 to 50° C. Thereafter, the pH value of the solution was adjusted to 5.0 by adding 5% hydrochloric acid solution dropwise. A similar procedure to the above, except using 1% aqueous sodium hydroxide solution in place of 5% hydrochloric acid solution, was performed to produce solutions, each having a regulated pH value of 6.0, 7.0, 8.0, or 9.0. Water for injection was further added to each solution to adjust the total volume of the solution to 100 ml. Subsequently, the bubbling of nitrogen gas was stopped, and each solution was filtered with a filtration filter, thereby to yield a solution for injection. Subsequently, each of five 5 ml-glass ampules the inside space of which had been substituted by nitrogen gas, was filled with 5 ml of the resultant solution for injection, and was sealed by heating.
For each aqueous preparation obtained as above, a stability test at 60° C. was performed by measuring the remaining calcium levofolinate content by the high performance liquid chromatography method.

[2] = Stability test at 60° C., effect of pH value without ascorbic acid (Example 3), HPLC content; conditions: no addition of ascorbic acid; for remaining calcium levofolinate content compared with the initial value (100): 60° C.
Method: as §1, §2
About 80 ml of water for injection were added to a beaker (volume: 200 ml). Then, 0.56 g of sodium chloride and 0.3 g of tromethamine were added to it with bubbling of nitrogen gas, and the components were dissolved with stirring and heating to 45 to 50° C. Subsequently, 1.375 g of calcium levofolinate (1.1 g, in terms of 5-formyl-(6S)-tetrahydrofolic acid) were added, and the components were dissolved with stirring. Thereafter, the pH value of the solution was adjusted to 6.0 by adding 5% hydrochloric acid solution dropwise. A similar procedure to the above was performed to produce solutions, each having a regulated pH value of 7.0, 7.5, 7.9, 8.1, 8.3, 8.7, 9.0, 9.2, and 9.5 (1% aqueous sodium hydroxide solution was used in place of 5% hydrochloric acid solution).
Water for injection was further added to each solution to adjust the total volume of the solution to 100 ml. Subsequently, the bubbling of nitrogen gas was stopped, and each solution was filtered with a filtration filter, thereby to yield a solution for injection. Subsequently, each of nine 5 ml-glass ampules the inside space of which had been substituted by nitrogen gas was filled with 5 ml of the resultant solution for injection, and was sealed by heating.
For each aqueous preparation obtained as above, a test evaluating stability at 60° C. was performed by measuring the remaining levofolinate content by the high performance liquid chromatography method. […] In the cases of pH 6 to 7 and pH 8.7 to pH 9, an extremely excellent stabilizing effect was confirmed.

[3] = Transmittance and coloring of the aqueous solution during storage; conditions: aqueous solution
Source text: The suppressing effect can be attained by the action of ascorbic acid which has been stabilized by sodium pyrosulfite.

remaining calcium levofolinate content compared with the initial value (100) ([1]; pH value 5.0, 60° C., 1 week): 91.5 | remaining calcium levofolinate content compared with the initial value (100) ([1]; pH value 5.0, 60° C., 2 weeks): 87.5 | remaining calcium levofolinate content compared with the initial value (100) ([1]; pH value 5.0, 60° C., 3 weeks): 86.0 | calcium levofolinate content, Initial value (100) ([1]; pH value 5.0, Initial value): 100 | remaining calcium levofolinate content compared with the initial value (100) ([1]; pH value 6.0, 60° C., 1 week): 95.8 | remaining calcium levofolinate content compared with the initial value (100) ([1]; pH value 6.0, 60° C., 2 weeks): 94.1 | remaining calcium levofolinate content compared with the initial value (100) ([1]; pH value 6.0, 60° C., 3 weeks): 92.8 | calcium levofolinate content, Initial value (100) ([1]; pH value 6.0, Initial value): 100 | remaining calcium levofolinate content compared with the initial value (100) ([1]; pH value 7.0, 60° C., 1 week): 96.3 | remaining calcium levofolinate content compared with the initial value (100) ([1]; pH value 7.0, 60° C., 2 weeks): 93.4 | remaining calcium levofolinate content compared with the initial value (100) ([1]; pH value 7.0, 60° C., 3 weeks): 92.5 | calcium levofolinate content, Initial value (100) ([1]; pH value 7.0, Initial value): 100 | remaining calcium levofolinate content compared with the initial value (100) ([1]; pH value 8.0, 60° C., 1 week): 94.4 | remaining calcium levofolinate content compared with the initial value (100) ([1]; pH value 8.0, 60° C., 2 weeks): 89.2 | remaining calcium levofolinate content compared with the initial value (100) ([1]; pH value 8.0, 60° C., 3 weeks): 87.0 | calcium levofolinate content, Initial value (100) ([1]; pH value 8.0, Initial value): 100 | remaining calcium levofolinate content compared with the initial value (100) ([1]; pH value 9.0, 60° C., 1 week): 95.7 | remaining calcium levofolinate content compared with the initial value (100) ([1]; pH value 9.0, 60° C., 2 weeks): 89.7 | remaining calcium levofolinate content compared with the initial value (100) ([1]; pH value 9.0, 60° C., 3 weeks): 85.3 | calcium levofolinate content, Initial value (100) ([1]; pH value 9.0, Initial value): 100 | remaining calcium levofolinate content compared with the initial value (100) ([2]; pH value 6.0, 1 month): 88.7 | remaining calcium levofolinate content compared with the initial value (100) ([2]; pH value 6.0, 1 week): 94.7 | remaining calcium levofolinate content compared with the initial value (100) ([2]; pH value 6.0, 2 weeks): 92.5 | remaining calcium levofolinate content compared with the initial value (100) ([2]; pH value 6.0, 3 weeks): 90.1 | calcium levofolinate content, Initial value (100) ([2]; pH value 6.0): 100 | remaining calcium levofolinate content compared with the initial value (100) ([2]; pH value 7.0, 1 month): 88.6 | remaining calcium levofolinate content compared with the initial value (100) ([2]; pH value 7.0, 1 week): 94.8 | remaining calcium levofolinate content compared with the initial value (100) ([2]; pH value 7.0, 2 weeks): 92.2 | remaining calcium levofolinate content compared with the initial value (100) ([2]; pH value 7.0, 3 weeks): 90.1 | calcium levofolinate content, Initial value (100) ([2]; pH value 7.0): 100 | remaining calcium levofolinate content compared with the initial value (100) ([2]; pH value 7.5, 1 month): 84.2 | remaining calcium levofolinate content compared with the initial value (100) ([2]; pH value 7.5, 1 week): 93.4 | remaining calcium levofolinate content compared with the initial value (100) ([2]; pH value 7.5, 2 weeks): 89.0 | remaining calcium levofolinate content compared with the initial value (100) ([2]; pH value 7.5, 3 weeks): 86.8 | calcium levofolinate content, Initial value (100) ([2]; pH value 7.5): 100 | remaining calcium levofolinate content compared with the initial value (100) ([2]; pH value 7.9, 1 month): 81.9 | remaining calcium levofolinate content compared with the initial value (100) ([2]; pH value 7.9, 1 week): 95.1 | remaining calcium levofolinate content compared with the initial value (100) ([2]; pH value 7.9, 2 weeks): 89.7 | remaining calcium levofolinate content compared with the initial value (100) ([2]; pH value 7.9, 3 weeks): 86.3 | calcium levofolinate content, Initial value (100) ([2]; pH value 7.9): 100 | remaining calcium levofolinate content compared with the initial value (100) ([2]; pH value 8.1, 1 week): 95.4 | remaining calcium levofolinate content compared with the initial value (100) ([2]; pH value 8.1, 2 weeks): 91.5 | remaining calcium levofolinate content compared with the initial value (100) ([2]; pH value 8.1, 3 weeks): 85.6 | calcium levofolinate content, Initial value (100) ([2]; pH value 8.1): 100 | remaining calcium levofolinate content compared with the initial value (100) ([2]; pH value 8.3, 1 week): 93.6 | remaining calcium levofolinate content compared with the initial value (100) ([2]; pH value 8.3, 2 weeks): 91.1 | remaining calcium levofolinate content compared with the initial value (100) ([2]; pH value 8.3, 3 weeks): 85.5 | calcium levofolinate content, Initial value (100) ([2]; pH value 8.3): 100 | remaining calcium levofolinate content compared with the initial value (100) ([2]; pH value 8.7, 1 week): 94.7 | remaining calcium levofolinate content compared with the initial value (100) ([2]; pH value 8.7, 2 weeks): 93.6 | remaining calcium levofolinate content compared with the initial value (100) ([2]; pH value 8.7, 3 weeks): 88.3 | calcium levofolinate content, Initial value (100) ([2]; pH value 8.7): 100 | remaining calcium levofolinate content compared with the initial value (100) ([2]; pH value 9.0, 1 week): 96.1 | remaining calcium levofolinate content compared with the initial value (100) ([2]; pH value 9.0, 2 weeks): 93.3 | remaining calcium levofolinate content compared with the initial value (100) ([2]; pH value 9.0, 3 weeks): 88.6 | calcium levofolinate content, Initial value (100) ([2]; pH value 9.0): 100 | remaining calcium levofolinate content compared with the initial value (100) ([2]; pH value 9.2, 1 week): 94.4 | remaining calcium levofolinate content compared with the initial value (100) ([2]; pH value 9.2, 2 weeks): 93.4 | remaining calcium levofolinate content compared with the initial value (100) ([2]; pH value 9.2, 3 weeks): 87.7 | calcium levofolinate content, Initial value (100) ([2]; pH value 9.2): 100 | remaining calcium levofolinate content compared with the initial value (100) ([2]; pH value 9.5, 1 week): 93.7 | remaining calcium levofolinate content compared with the initial value (100) ([2]; pH value 9.5, 2 weeks): 92.4 | remaining calcium levofolinate content compared with the initial value (100) ([2]; pH value 9.5, 3 weeks): 85.3 | calcium levofolinate content, Initial value (100) ([2]; pH value 9.5): 100 | transmittance of the aqueous solution during storage [3]: lowers gradually
SMILES: Nc1nc(=O)c2c([nH]1)NC[C@H](CNc1ccc(C(=O)N[C@@H](CCC(=O)O)C(=O)O)cc1)N2C=O [calcium levofolinate, (6S)-N-[4-[[(2-amino-5-formyl-1,4,5,6,7,8-hexahydro-4-oxo-6-pteridinyl)methyl]amino]benzoyl]-L-glutamic acid]
